Laboratory results reported in patent US9562065B2, “Sucrose octasulfates of magnesium, preparation method thereof and pharmaceutical cosmetic uses of same” (PIERRE FABRE DERMO-COSMETIQUE, priority 2011, dated 2017).
Marks after values point to notes of the source that are not given here.

What was measured:
Format in all cases: cell-based
[1] = system: HaCaT human keratinocytes cell line; assay: Oris Cell Migration Assay, keratinocyte migration; conditions: for AVG IF (Intensity of Fluorescence, proportional to the quantity of cells having migrated) / % activity/control: 24 hours; for AVG IF (Intensity of Fluorescence, proportional to the quantity of cells having migrated): DMEM 0% FCS; for % activity/control: in relation to the 0% FCS control
Procedure: In order to evaluate the impact of sucrose octasulfate of magnesium on the cell migration of HaCaT keratinocyte cell lines, studies were carried out using the Oris Cell Migration Assay Kit (Platypus Technologies). This study was conducted in parallel with sucrose octasulfate of potassium and sucrose octasulfate of sodium for comparison.
The keratinocyte cell line used is the HaCaT human keratinocytes cell line, spontaneously immortalized. This line is frequently cited as a reference model in the literature.
The protocol used for the cell migration study is based on the use of a 96-well kit, Oris Cell Migration Assay (Platypus Technologies—TEBU), enabling the miniaturization and quantification of this cell process.
The principle of this test consists in studying cell migration toward the center of the well of the 96-well plate. It consists in placing a stopper in the wells, in order to create a detection zone 2 mm in diameter. Then the stoppers are removed once the cells are well adhered to the surrounding surface, thus allowing the cells to migrate toward the detection zone. Plates without stoppers and with active agents are incubated at 37° C. for 24 hours in DMEM 0% FCS. The quantity of cells located in the zone previously occupied by the stopper is then analyzed in order to evaluate cell migration. A mask is used to visualize and count only the cells located in this zone. For each condition, an average of 4 to 8 wells is prepared.
The products tested in this study are SOS-Mg obtained in example 1 at a concentration of 10 μM, SOS-K at 10 μM (sucrose octasulfate of potassium), SOS-Na at 10 μM (sucrose octasulfate of sodium) and EGF as positive control. A negative control is prepared in which no compound is added to the culture medium (control 0% FCS).
The results are quantified by means of the following formula:
[formula] • in IF (Intensity of Fluorescence, proportional to the quantity of cells having migrated). • in percentage of activity in relation to the 0% FCS control.

DEFB103A = assay: mRNA expression in normal human keratinocytes (Quantigene), DEFB103A; parameters: dose or concentration left out as unconfirmed; conditions: CaCl2, positive control, 72 hours, NHK, in relation to the negative control
Procedure: (§1) The effect of sucrose octasulfate of magnesium and sucrose octasulfate of potassium and sodium on regulation of molecular targets involved in keratinocyte differentiation processes was evaluated. To that end, normal human keratinocytes (NHK) were brought together with the various products to be tested and the expression of various RNA coding proteins involved in the establishment of protein structures of the cornified envelope, but also in the synthesis of lipids or the expression of antimicrobial peptides, was measured.
(§2) The keratinocyte cell line used is the primary human keratinocyte cell line or NHKs prepared from strips of skin from cosmetic surgery waste (breast reduction). […]
(§3) The products to be tested are incubated with keratinocytes for 72 hours. The cells are then recovered and an analysis of the expression of target genes involved in epidermal differentiation is carried out using Quantigene technology, used to quantify the expression of mRNA of interest.
(§4) The values obtained by Quantigene are normalized in relation to the geometric mean of 2 reference genes, POL2RA and HPRT. Relative quantity is calculated in relation to the control. Regulation of the expression of the gene of interest is taken into account from a RQ (relative quantity)≧1.9 (induction) or RQ[…] (inhibition). […]

CDSN = assay: mRNA expression in normal human keratinocytes (Quantigene), CDSN; parameters: dose or concentration left out as unconfirmed; conditions: positive control, 72 hours, NHK, in relation to the negative control
Procedure: as §1, §2, §3, §4

RNASE7 = assay: mRNA expression in normal human keratinocytes (Quantigene), RNASE7; parameters: dose or concentration left out as unconfirmed; conditions: CaCl2, positive control, 72 hours, NHK, in relation to the negative control
Procedure: as §1, §2, §3, §4

UGCG = assay: mRNA expression in normal human keratinocytes (Quantigene), UGCG; parameters: dose or concentration left out as unconfirmed; conditions: CaCl2, positive control, 72 hours, NHK, in relation to the negative control
Procedure: as §1, §2, §3, §4

FLG = assay: mRNA expression in normal human keratinocytes (real-time PCR), FLG; conditions: 30 μM, 72 hours, NHK
Procedure: (§5) The keratinocyte cell line used is the primary human keratinocyte cell line or NHKs prepared from strips of skin from cosmetic surgery waste (breast reduction). The cells are grown in low-magnesium (0.1 mM) KSFM (Invitrogen) supplemented with 25 μg/ml bovine pituitary extract (BPE) and 1.5 ng/ml […] (EGF).
as §3
(§6) A second study was carried out under the same conditions but by measuring the expression of a larger number of genes (64 targets involved in cell differentiation) by real-time PCR.
(§7) These inductions show the role of SOS-Mg in the induction of keratinocyte differentiation and thus of cicatrization (IVL, SPRR1A, SPRR1B and LOR), in moisturization (Padi1) as well as its antimicrobial properties (hBD2).

IVL = assay: mRNA expression in normal human keratinocytes (real-time PCR), IVL; conditions: 30 μM, 72 hours, NHK
Procedure: as §5, §3, §6, §7

SPRR1A = assay: mRNA expression in normal human keratinocytes (real-time PCR), SPRR1A; conditions: 30 μM, 72 hours, NHK
Procedure: as §5, §3, §6, §7

SPRR1B = assay: mRNA expression in normal human keratinocytes (real-time PCR), SPRR1B; conditions: 30 μM, 72 hours, NHK
Procedure: as §5, §3, §6, §7

LOR = assay: mRNA expression in normal human keratinocytes (real-time PCR), loricrin; conditions: 30 μM, 72 hours, NHK, FIG. 1
Procedure: FIG. 1 represents the relative quantity of loricrin mRNA produced by keratinocytes treated for 72 hours with 30 μM sucrose octasulfate of magnesium (SOS-Mg), 30 μM sucrose octasulfate of sodium (SOS-Na) or 30 μM sucrose octasulfate of magnesium (SOS-Mg) in relation to the negative control.
as §5, §3, §6
(§8) These inductions show the role of SOS-Mg in the induction of keratinocyte differentiation and thus of cicatrization (IVL, SPRR1A, SPRR1B and LOR), in moisturization (Padi1) as well as its antimicrobial properties (hBD2). […]

Padi1 = assay: mRNA expression in normal human keratinocytes (real-time PCR), Padi1; conditions: 30 μM, 72 hours, NHK, FIG. 2
Procedure: FIG. 2 represents the relative quantity of Padi1 mRNA produced by keratinocytes treated for 72 hours with 30 μM sucrose octasulfate of magnesium (SOS-Mg), 30 μM sucrose octasulfate of sodium (SOS-Na) or 30 μM sucrose octasulfate of magnesium (SOS-Mg) in relation to the negative control.
as §5, §3, §6, §8

hBD2 (DEFB4) = assay: mRNA expression in normal human keratinocytes (real-time PCR), hBD2; conditions: 30 μM, 72 hours, NHK, FIG. 3
Procedure: FIG. 3 represents the relative quantity of hBD2 mRNA produced by keratinocytes treated for 72 hours with 30 μM sucrose octasulfate of magnesium (SOS-Mg), 30 μM sucrose octasulfate of sodium (SOS-Na) or 30 μM sucrose octasulfate of magnesium (SOS-Mg) in relation to the negative control.
as §5, §3, §6, §8

For O=S(=O)([O-])OC[C@H]1O[C@@](COS(=O)(=O)[O-])(O[C@H]2O[C@H](COS(=O)(=O)[O-])[C@@H](OS(=O)(=O)[O-])[C@H](OS(=O)(=O)[O-])[C@H]2OS(=O)(=O)[O-])[C@@H](OS(=O)(=O)[O-])[C@@H]1OS(=O)(=O)[O-].[K+].[K+].[K+].[K+].[K+].[K+].[K+].[K+] [SOS-K, sucrose octasulfate of potassium], the “AVG IF (Intensity of Fluorescence, proportional to the quantity of cells having migrated)” value (shortened to “AVG IF”) ([1]; 10 μM, HaCaT) was 5001 ± 835, the “% activity/control” value ([1]; 10 μM) was 99% and the “keratinocyte migration (result in words)” value ([1]; 10 μM, HaCaT) was “do not induce keratinocyte migration”.

O=S(=O)([O-])OC[C@H]1O[C@@](COS(=O)(=O)[O-])(O[C@H]2O[C@H](COS(=O)(=O)[O-])[C@@H](OS(=O)(=O)[O-])[C@H](OS(=O)(=O)[O-])[C@H]2OS(=O)(=O)[O-])[C@@H](OS(=O)(=O)[O-])[C@@H]1OS(=O)(=O)[O-].[Na+].[Na+].[Na+].[Na+].[Na+].[Na+].[Na+].[Na+] [SOS-Na, sucrose octasulfate of sodium] was tested, and the “AVG IF” value ([1]; 10 μM, HaCaT) was 4988 ± 965, the “% activity/control” value ([1]; 10 μM) was 99% and the “keratinocyte migration (result in words)” value ([1]; 10 μM, HaCaT) was “do not induce keratinocyte migration”.

For [Ca+2].[Cl-].[Cl-] [CaCl2], the “Relative quantities (RQ) of mRNA expression, DEFB103A” value (DEFB103A) was 18.7, the “Relative quantities (RQ) of mRNA expression, DEFB103A” value (DEFB103A; listed as Calcium) was “induced” and the “Relative quantities (RQ) of mRNA expression, CDSN” value (CDSN) was 1.3. For the same compound, the “Relative quantities (RQ) of mRNA expression, RNASE7” value (RNASE7) was 4.5, the “Relative quantities (RQ) of mRNA expression, RNASE7” value (RNASE7; listed as Calcium) was “induced” and the “Relative quantities (RQ) of mRNA expression, UGCG” value (UGCG) was 3.1. The “Relative quantities (RQ) of mRNA expression, UGCG” value (UGCG; listed as Calcium) was “induced”.

For “EGF: epithelial growth factor (EGF), positive control of the migration test”, the “AVG IF” value ([1]; EGF 33 ng, positive control, HaCaT) was 16138 ± 1548, the “% activity/control” value ([1]; EGF 33 ng, positive control) was 320*** % and the “keratinocyte migration (result in words)” value ([1]; EGF at 33 ng/ml, positive control, HaCaT) was “induced keratinocyte migration (and proliferation) in a very large and significant manner”.

For “sucrose octasulfate of magnesium [SOS-Mg]”, the “AVG IF” value ([1]; 10 μM, HaCaT) was 7084 ± 662, the “% activity/control” value ([1]; 10 μM) was 140* % and the “keratinocyte migration (result in words)” value ([1]; 10 μM, HaCaT) was “induced keratinocyte migration in a statistically significant manner”. For the same compound, the “migration relative to that induced by SOS-Na and SOS-K” value ([1]; 10 μM, HaCaT) was 1.4 times, the “expression of FLG mRNA” value (FLG) was “induced” and the “expression of IVL mRNA” value (IVL) was “induced”. The “expression of SPRR1A mRNA” value (SPRR1A) was “induced”, the “expression of SPRR1B mRNA” value (SPRR1B) was “induced” and the “expression of LOR (loricrin) mRNA” value (LOR) was “induced to a greater extent”. For the same compound, the “expression of Padi1 mRNA” value (Padi1) was “induced to a greater extent” and the “expression of hBD2 (DEFB4) mRNA” value (hBD2 (DEFB4)) was “induced to a greater extent”.
